Experiments:
Assay type in all cases: cell-based
[1] = tested on: MES SA (uterine sarcoma cells); experiment: Cytotoxic assay (CellTiter-Glo, 72 h), MES SA; conditions: Homo sapiens, MES-SA, 72 h, read-out: IC50 MES SA
[2] = tested on: MES SA DX (multidrug resistant uterine sarcoma cells); experiment: Cytotoxic assay (CellTiter-Glo, 72 h), MES SA DX; conditions: Homo sapiens
[3] = tested on: HEK 293T (human embryonic kidney cells); experiment: Cytotoxic assay (CellTiter-Glo, 72 h), HEK 293T; conditions: Homo sapiens, HEK-293T, 72 h, read-out: IC50 HEK 293T
[4] = tested on: NCI-60 human cancer cell line panel; experiment: NCI-60 one-dose test; conditions: one-dose test (10 μM), NCI-60 panel
Experimental: A number of the synthesized compounds (i.e. Tb1-Tb23) were evaluated for their activity against a variety of cancer cell lines, namely the NCI-60 human cancer cell line panel representing leukemia, melanoma, lung, colon, brain, ovary, breast, prostate and kidney types of cancer through the In Vitro Cell Line Screening Project (IVCLSP) of the National Cancer Institute (NCI), and a summary of the results is shown in Table 1. […] As there was interest in the activity in certain other cell lines, these and the remaining compounds (Tb1-Tb41, PTb-D42 and PTb-D43) were subjected to further testing against MES SA (uterine sarcoma cells), MES SA DX (multidrug resistant uterine sarcoma cells), and HEK 293T (human embryonic kidney cells). […] Tubulysins are known to be substrates for Pgp pumps (Xiangming, et al., 2013; Kaur, et al., 2006; Szakacs, et al., 2006) as supported by the observed low activities of all tubulysins tested except Tb28, Tb32 and Tb33.

| SMILES | IC50 [1] | IC50 [2] | IC50 [3] | one dose, mean growth % [4] |
| --- | --- | --- | --- | --- |
| CCC(C)[C@H](NC(=O)c1ccccn1)C(=O)N(C)[C@H](C[C@@H](OC(C)=O)c1nc(C(=O)NC23C4C5C2C2C3C4C52C(=O)OC)cs1)C(C)C (stereo in doubt) [Tb12, Methyl 4-(2-((1R,3R)-1-acetoxy-3-((2S,3S)—N,3-dimethyl-2-(picolinamido)pentanamido)-4-methyl-pentyl)thiazole-4-carboxamido)cubane-1-carboxylate] | > 50 nM | > 50 nM | > 50 nM | 84.90% |
| CC[C@@H](C)[C@H](NC(=O)[C@H]1CCCCN1C)C(=O)N(C)[C@H](C(=O)NC12C3C4C1C1C2C3C41C(=O)N[C@@H](Cc1ccccc1)C[C@H](C)C(=O)OC)C(C)C (stereo partly drawn) [Tb17, Methyl (2S,4R)-4-(4-((S)-2-((2S,3S)—N,3-dimethyl-2-((R)-1-methylpiperidine-2-carboxamido)penta-namido)-3-methylbutanamido)cubane-1-carboxamido)-2-methyl-5-phenylpentanoate] | > 50 nM | > 50 nM | > 50 nM | 97.37% |
| CCC(C)[C@H](NC(=O)c1ccccn1)C(=O)N(C)[C@H](C[C@@H](OC(C)=O)c1nc(C(=O)NC23CC(C(=O)OC)(C2)C3)cs1)C(C)C (stereo in doubt) [Tb15, Methyl 3-(2-((1R,3R)-1-acetoxy-3-((2S,3S)—N,3-dimethyl-2-(picolinamido)pentanamido)-4-methyl-pentyl)thiazole-4-carboxamido)bicyclo[1.1.1]pentane-1-carboxylate] | > 50 nM | > 50 nM | > 50 nM | 94.38% |
| CCC(C)[C@H](NC(=O)CN(C)C)C(=O)N(C)[C@H](C(=O)NC12C3C4C1C1C2C3C41C(=O)N[C@@H](Cc1ccccc1)C[C@H](C)C(=O)OC)C(C)C (stereo in doubt) [Tb18, Methyl (2S,4R)-4-(4-((S)-2-((2S,3S)-2-(2-(dimethylamino)acetamido)-N,3-dimethylpentanamido)-3-methylbutanamido)cubane-1-carboxamido)-2-methyl-5-phenylpentanoate] | > 50 nM | > 50 nM | > 50 nM | 98.48% |
